Some results are limits rather than exact numbers.

The values that follow come from ChEMBL document CHEMBL1128749, “1-Aminoindan-1,5-dicarboxylic acid: a novel antagonist at phospholipase C-linked metabotropic glutamate receptors” (J Med Chem, 1995).

Assay [1] deals with T1, Metabotropic glutamate receptor 2 (Homo sapiens, UniProt Q14416). The experiment in a line: Ability to inhibit mGluR2-alpha induced cAMP formation was determined at BHK cells at 100 Micro M Concentration. Format: functional, cell-based, Mesocricetus auratus.
For assay [2], the target named is T2, Metabotropic glutamate receptor 4 (Homo sapiens, UniProt Q14833). The experiment in a line: Ability to inhibit mGluR4-alpha induced cAMP formation was determined at BHK cells at 100 Micro M Concentration. It counts as functional, cell-based, Mesocricetus auratus. In general terms: Changes in cAMP serve as a functional read-out for many G protein-coupled receptors.

Assay [3] addresses T3, Metabotropic glutamate receptor 1 (Homo sapiens, UniProt Q13255). The assay can be described thus: Ability to inhibit mGluR1-alpha-mediated PI (phospho inositol) hydrolysis was determined at BHK cells at 100 Micro M Concentration. It counts as functional, cell-based, Mesocricetus auratus.
Assay [4] concerns the target T2, Metabotropic glutamate receptor 4. The experiment in a line: Ability to inhibit mGluR4-alpha induced cAMP formation was determined at BHK cells at 100 Micro M Concentration; Not effective at the highest concentration tested (100 uM). It counts as functional, cell-based, Mesocricetus auratus.
Assay [5] concerns the target T3, Metabotropic glutamate receptor 1. The assay can be described thus: Ability to inhibit mGluR1-alpha-mediated PI (phospho inositol) hydrolysis was determined at BHK cells at 100 Micro M Concentration; Not effective at the highest concentration tested (100 uM). It counts as functional, cell-based, Mesocricetus auratus.
Assay [6] addresses T1, Metabotropic glutamate receptor 2. The experiment in a line: Ability to inhibit mGluR2-alpha induced cAMP formation was determined at BHK cells at 100 Micro M Concentration; Not effective at the highest concentration tested (100 µM).
Assay [7] has the same target. The experiment in a line: Ability to inhibit mGluR2-alpha induced cAMP formation was determined at BHK cells at 100 Micro M Concentration; Not effective at the highest concentration tested (100 uM). It counts as functional, cell-based, Mesocricetus auratus.

T1 sequence (Q14416 whole entry): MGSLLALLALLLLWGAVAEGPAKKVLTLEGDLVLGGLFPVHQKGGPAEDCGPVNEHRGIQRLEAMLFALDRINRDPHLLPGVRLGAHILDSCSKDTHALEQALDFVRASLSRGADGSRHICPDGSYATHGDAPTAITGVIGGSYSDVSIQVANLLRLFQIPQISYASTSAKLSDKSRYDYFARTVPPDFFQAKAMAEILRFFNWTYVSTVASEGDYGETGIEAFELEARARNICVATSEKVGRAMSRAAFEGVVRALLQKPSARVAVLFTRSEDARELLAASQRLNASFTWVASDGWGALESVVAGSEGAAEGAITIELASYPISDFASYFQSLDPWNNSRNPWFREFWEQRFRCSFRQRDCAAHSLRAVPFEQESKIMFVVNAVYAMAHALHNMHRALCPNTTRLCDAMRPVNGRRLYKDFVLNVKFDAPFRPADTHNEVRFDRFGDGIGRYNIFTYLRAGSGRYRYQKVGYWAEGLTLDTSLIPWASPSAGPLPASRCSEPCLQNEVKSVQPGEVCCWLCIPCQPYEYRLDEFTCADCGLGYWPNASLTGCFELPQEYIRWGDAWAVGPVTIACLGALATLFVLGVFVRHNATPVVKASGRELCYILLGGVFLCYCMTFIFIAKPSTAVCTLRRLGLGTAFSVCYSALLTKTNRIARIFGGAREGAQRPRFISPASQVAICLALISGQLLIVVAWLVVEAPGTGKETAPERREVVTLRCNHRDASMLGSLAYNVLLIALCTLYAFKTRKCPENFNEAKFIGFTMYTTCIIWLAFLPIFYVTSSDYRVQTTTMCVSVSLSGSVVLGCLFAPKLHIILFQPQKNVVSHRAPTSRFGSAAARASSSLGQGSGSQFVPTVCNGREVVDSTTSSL
T2 sequence (Q14833 whole entry): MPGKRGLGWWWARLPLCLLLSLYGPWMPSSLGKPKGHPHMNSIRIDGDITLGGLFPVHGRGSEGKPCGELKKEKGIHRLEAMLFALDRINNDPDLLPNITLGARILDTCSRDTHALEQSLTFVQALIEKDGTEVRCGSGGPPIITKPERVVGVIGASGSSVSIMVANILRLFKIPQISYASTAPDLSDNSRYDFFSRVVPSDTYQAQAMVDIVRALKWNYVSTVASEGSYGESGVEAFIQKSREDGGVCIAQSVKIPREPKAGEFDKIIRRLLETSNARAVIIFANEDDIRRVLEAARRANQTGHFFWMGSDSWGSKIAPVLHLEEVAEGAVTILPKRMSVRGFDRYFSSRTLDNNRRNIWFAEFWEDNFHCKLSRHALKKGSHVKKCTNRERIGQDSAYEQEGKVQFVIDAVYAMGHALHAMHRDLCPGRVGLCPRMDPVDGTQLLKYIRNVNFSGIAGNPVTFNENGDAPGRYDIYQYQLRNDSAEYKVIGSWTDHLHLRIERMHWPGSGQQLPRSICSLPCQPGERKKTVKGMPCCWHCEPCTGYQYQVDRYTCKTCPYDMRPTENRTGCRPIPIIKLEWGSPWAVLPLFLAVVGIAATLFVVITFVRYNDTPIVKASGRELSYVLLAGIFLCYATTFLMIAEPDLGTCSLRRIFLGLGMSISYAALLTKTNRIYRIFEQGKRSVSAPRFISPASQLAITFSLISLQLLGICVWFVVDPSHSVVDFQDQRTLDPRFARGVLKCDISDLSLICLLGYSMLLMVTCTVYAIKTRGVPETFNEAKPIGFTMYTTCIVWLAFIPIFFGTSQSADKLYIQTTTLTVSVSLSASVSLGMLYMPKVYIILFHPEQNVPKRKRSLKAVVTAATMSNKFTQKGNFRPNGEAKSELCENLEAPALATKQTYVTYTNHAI
T3 sequence (Q13255 whole entry): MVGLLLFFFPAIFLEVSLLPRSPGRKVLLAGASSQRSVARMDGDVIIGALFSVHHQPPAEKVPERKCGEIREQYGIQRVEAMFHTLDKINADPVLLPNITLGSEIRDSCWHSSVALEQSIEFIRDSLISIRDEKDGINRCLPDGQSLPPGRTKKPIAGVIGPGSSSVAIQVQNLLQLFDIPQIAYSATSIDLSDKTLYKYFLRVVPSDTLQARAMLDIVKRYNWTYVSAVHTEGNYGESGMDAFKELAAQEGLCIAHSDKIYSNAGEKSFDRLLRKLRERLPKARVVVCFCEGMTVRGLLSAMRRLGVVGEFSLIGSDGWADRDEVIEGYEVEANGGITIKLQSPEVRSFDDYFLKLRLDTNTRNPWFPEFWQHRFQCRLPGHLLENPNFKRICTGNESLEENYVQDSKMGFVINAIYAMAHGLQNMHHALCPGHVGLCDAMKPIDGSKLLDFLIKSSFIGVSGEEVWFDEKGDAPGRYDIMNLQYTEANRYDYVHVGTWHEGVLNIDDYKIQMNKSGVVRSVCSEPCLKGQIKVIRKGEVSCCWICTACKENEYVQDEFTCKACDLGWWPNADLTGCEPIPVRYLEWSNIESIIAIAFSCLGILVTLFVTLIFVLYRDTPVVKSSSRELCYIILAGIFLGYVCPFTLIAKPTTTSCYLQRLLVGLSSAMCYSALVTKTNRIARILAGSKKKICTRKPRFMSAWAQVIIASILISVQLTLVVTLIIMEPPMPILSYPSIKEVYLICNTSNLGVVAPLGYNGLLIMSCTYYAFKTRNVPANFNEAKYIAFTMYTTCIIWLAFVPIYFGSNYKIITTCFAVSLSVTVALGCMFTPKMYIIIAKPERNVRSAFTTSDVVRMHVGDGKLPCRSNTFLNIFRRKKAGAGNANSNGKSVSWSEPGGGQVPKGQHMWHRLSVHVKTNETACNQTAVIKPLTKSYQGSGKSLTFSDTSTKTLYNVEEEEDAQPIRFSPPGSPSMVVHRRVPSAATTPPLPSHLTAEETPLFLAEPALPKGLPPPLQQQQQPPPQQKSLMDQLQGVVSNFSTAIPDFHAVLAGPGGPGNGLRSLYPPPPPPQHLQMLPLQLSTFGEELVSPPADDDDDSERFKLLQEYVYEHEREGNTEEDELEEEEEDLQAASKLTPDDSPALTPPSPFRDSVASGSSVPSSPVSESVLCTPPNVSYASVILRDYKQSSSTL

Turning to `NC(C(=O)O)c1ccc(C(=O)O)cc1` (stereo not drawn), the concentration for half-maximal inhibition (IC50) was 577 µM in assay [1], over 1000 µM in assay [2] and 65 µM in assay [3].
Taken in the same sequence, the figures for `CC(N)(C(=O)O)c1ccc(C(=O)O)cc1` (stereo not drawn) were 340 µM, over 1000 µM and 155 µM.
Taken in the same sequence, the figures for `NC(C(=O)O)c1ccc(C(=O)O)c(O)c1` (stereo not drawn) were 48 µM, over 1000 µM and 40 µM.
`NC1(C(=O)O)CCc2ccc(C(=O)O)cc21` (stereo not drawn): the IC50 entry in assay [4], in assay [5] and in assay [6] was “No effect” each time.
Take `NC1(C(=O)O)CCc2cc(C(=O)O)ccc21` (stereo not drawn): the IC50 result in assay [7] is “No effect”; in assay [4], “No effect”; in assay [3], 7 µM.
On to `NC1(C(=O)O)CCc2c(C(=O)O)cccc21` (stereo not drawn), for which the half-inhibitory concentration (IC50) result in assay [7], in assay [4] and in assay [5] was “No effect” throughout.

In general, IC50 refers to the concentration at which inhibition is half-maximal.
